From patent US11472798B2 (Mission Therapeutics Limited, priority 2014, dated 2022) come the findings set out here.

pIC50: −log10 of the molar value.

Usually pIC50 stands for the IC50 on a negative log10 scale, so that one unit is a factor of ten.

This experiment concerns the target T1, UCHL1 (Homo sapiens, UniProt P09936).
T1 construct: made in house; host or cells: HEK293T
T1 sequence (P09936 1-223): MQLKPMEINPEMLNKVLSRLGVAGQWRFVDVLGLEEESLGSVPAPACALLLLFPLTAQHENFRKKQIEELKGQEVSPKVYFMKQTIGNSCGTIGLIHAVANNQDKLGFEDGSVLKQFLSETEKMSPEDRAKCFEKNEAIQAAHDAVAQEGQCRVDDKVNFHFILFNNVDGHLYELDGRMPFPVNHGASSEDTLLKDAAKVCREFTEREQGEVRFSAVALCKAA
Description: UCHL1 biochemical IC50 assay (fluorescence polarisation). To be noted: 30 min enzyme/compound pre-incubation at room temp, read after 2 hr incubation, read-out: Activity range (UCHL1 biochemical IC50 assay). An excerpt:
Biological Activity of Compounds of the Invention Abbreviations: TAMRA carboxytetramethylrhodamine PCR polymerase chain reaction PBS phosphate buffered saline EDTA ethylenediaminetetraacetic acid Tris 2-amino-2-(hydroxymethyl)-1,3-propanediol NP-40 Nonidet P-40, octylphenoxypolyethoxyethanol BSA bovine serum albumin In Vitro UCHL1 Inhibition Assay Expression and Purification of UCHL1
The UCHL1 construct was PCR amplified and cloned into a pFLAG-CMV-6a vector (Sigma-Aldrich) with an N-terminal FLAG tag. HEK293T cells were transfected with FLAG-UCHL1 using TransIT-LT1 transfection reagent (Mirus) according to the manufacturer's instructions. Cells were harvested 40 hours after transfection. Cells were washed once with PBS and scraped in lysis buffer (50 mM Tris, pH 7.5, 150 mM NaCl, 3 mM EDTA, 0.5% NP40, 10% glycerol, 5 mM beta-mercaptoethanol, protease inhibitors (complete mini, Roche) and phosphatase inhibitors (PhosSTOP mini, Roche). Lysates were incubated for 30 min on ice and centrifuged at 1200 rpm for 10 min at 4° C. Soluble supernatant was added to FLAG affinity resin (EZview Rad ANTI-FLAG M2 affinity gel, Sigma-Aldrich) equilibrated in low salt buffer (20 mM Tris, pH 7.5, 150 mM NaCl, 0.5 mM EDTA, 5 mM beta-mercaptoethanol) and incubated at 4° C. for 3 hours rotating. The resin was spun at 2000 rpm for 2 min and the supernatant was removed. The resin was washed two times with low salt buffer and one time with high salt buffer (20 mM Tris, pH 7.5, 500 mM NaCl, 0.5 mM EDTA, 5 mM beta-mercaptoethanol, protease inhibitors (complete mini, Roche) and phosphatase inhibitors (PhosSTOP mini, Roche). To elute the bound UCHL1, elution buffer (10 mM Tris, pH 7.5, 150 mM NaCl, 0.5 mM FDTA, 10% glycerol, 0.5% NP40, 5 mM beta-mercaptoethanol, 0.15 mg/ml 3×FLAG peptide (Sigma-Aldrich)) was added to the resin and incubated at 4° C. for 2.5 hours rotating. The resin was centrifuged at 4000 rpm for 30 seconds, and the supernatant containing purified FLAG-UCHL1 was removed and stored at −80° C.
UCHL1 Biochemical IC50 Assay
Dilution plates were prepared at 21 times the final concentration (2100 μM for a final concentration of 100 µM) in 50% DMSO in a 96-well polypropylene V-bottom plate (Greiner #651201). A typical 8-point dilution series to be 100, 30, 10, 3, 1, 0.3, 0.1, 0.03 μM final. Reactions were performed in duplicate in black 384 well plates (small volume, Greiner 784076) in a final reaction volume of 21 μl. Either 1 μl of 50% DMSO or diluted compound was added to the plate. UCHL1 was diluted in reaction buffer (20 mM Tris, pH 7.5, 100 mM NaCl, 0.05% Tween 20, 0.5 mg/ml BSA, 5 mM—beta mercaptoethanol) to the equivalent of 0.05 μl/well and 10 μl of diluted UCHL1 was added to the compound. Enzyme and compound were incubated for 30 min at room temp. Reactions were initiated by the addition of 50 nM of TAMRA labelled peptide linked to ubiquitin via an iso-peptide bond as fluorescence polarisation substrate. Reactions were read immediately after addition of substrate and following a 2 hr incubation at room temperature. Readings were performed on a Pherastar Plus (BMG Labtech). λ Excitation 540 nm; k Emission 590 nm.
A general note: Fluorescence polarisation rises when a labelled molecule tumbles more slowly, as on binding a larger partner.
With `N#CN1CC[C@H](C(=O)Nc2cn3cc(C4CC4)ccc3n2)C1` [Example 129, (S)-1-cyano-N-(6-cyclopropylimidazo[1,2-a]pyridin-2-yl)pyrrolidine-3-carboxamide], the pIC50 was over 6.00.
For `N#CN1CC[C@H](C(=O)Nc2cn(-c3cccc(C(F)(F)F)c3)cn2)C1` [Example 154, (S)-1-cyano-N-(1-(3-(trifluoromethyl)phenyl)-1H-imidazol-4-yl)pyrrolidine-3-carboxamide], the pIC50 was over 6.00.
With `Cc1[nH]ncc1-c1ccnc(NC(=O)[C@H]2CCN(C#N)C2)c1` [Example 295, (S)-1-cyano-N-(4-(5-methyl-1H-pyrazol-4-yl)pyridin-2-yl)pyrrolidine-3-carboxamide] the figure was 5.00 to 6.00; with `Cn1cc(-c2ccc3nc(NC(=O)[C@H]4CCN(C#N)C4)sc3c2)cn1` [Example 124, (S)-1-cyano-N-(6-(1-methyl-1H-pyrazol-4-yl)benzo[d]thiazol-2-yl)pyrrolidine-3-carboxamide], over 6.00.
On to `COc1ccccc1-n1cnc(NC(=O)[C@H]2CCN(C#N)C2)c1` [Example 160, (S)-1-cyano-N-(1-(2-methoxyphenyl)-1H-imidazol-4-yl)pyrrolidine-3-carboxamide], for which the pIC50 is over 6.00.
`CC(=O)Nc1ccc(-c2cnc(NC(=O)C3CCN(C#N)C3)s2)cc1` (stereo not shown) [Example 114, N-(5-(4-acetamidophenyl)thiazol-2-yl)-1-cyanopyrrolidine-3-carboxamide]: the pIC50 was over 6.00.
Under `N#CN1CC[C@H](C(=O)Nc2ncc(N3CCOCC3)s2)C1` [Example 91, (S)-1-cyano-N-(5-morpholinothiazol-2-yl)pyrrolidine-3-carboxamide] stands over 6.00; under `COc1ccnc(NC(=O)[C@H]2CCN(C#N)C2)c1` [Example 53, (S)-1-cyano-N-(4-methoxypyridin-2-yl)pyrrolidine-3-carboxamide], 5.00 to 6.00; under `CC[C@@H]1CN(C#N)C[C@H]1C(=O)Nc1cn(-c2ccccc2)cn1` [Example 87, (6)-1-cyano-4-ethyl-N-(1-phenyl-1H-imidazol-4-yl)pyrrolidine-3-carboxamide], 5.00 to 6.00.
Under `N#CN1CC[C@H](C(=O)Nc2cc(-c3cn[nH]c3)ccn2)C1` [Example 291, (S)-N-(4-(1H-pyrazol-4-yl)pyridin-2-yl)-1-cyanopyrrolidine-3-carboxamide] stands 5.00 to 6.00.
Turning to `N#Cc1ccc(-n2cnc(NC(=O)[C@H]3CCN(C#N)C3)c2)cc1O[C@H]1CCOC1` [Example 247, (S)-1-cyano-N-(1-(4-cyano-3-(((S)-tetrahydrofuran-3-yl)oxy)phenyl)-1H-imidazol-4-yl)pyrrolidine-3-carboxamide], the pIC50 was over 6.00.
For `COc1ccccc1C(=O)N1CCc2nc(NC(=O)[C@H]3CCN(C#N)C3)sc2C1` [Example 192, (S)-1-cyano-N-(5-(2-methoxybenzoyl)-4,5,6,7-tetrahydrothiazolo[5,4-c]pyridin-2-yl)pyrrolidine-3-carboxamide], the pIC50 was over 6.00.
Under `COc1ccc(-c2ccc3nc(NC(=O)[C@H]4CCN(C#N)C4)sc3c2)cc1` [Example 121, (S)-1-cyano-N-(6-(4-methoxyphenyl)benzo[d]thiazol-2-yl)pyrrolidine-3-carboxamide] stands 5.00 to 6.00.
Under `N#CN1CC[C@H](C(=O)Nc2cc3ccccn3n2)C1` [Example 267, (S)-1-cyano-N-(pyrazolo[1,5-a]pyridin-2-yl)pyrrolidine-3-carboxamide] stands 5.00 to 6.00; under `Cc1n[nH]c2cc(-n3cnc(NC(=O)[C@H]4CCN(C#N)C4)c3)ccc12` [Example 299, (S)-1-cyano-N-(1-(3-methyl-1H-indazol-6-yl)-1H-imidazol-4-yl)pyrrolidine-3-carboxamide], over 6.00; under `Cc1c(-c2cnn(C)c2)ccc2nc(NC(=O)[C@H]3CCN(C#N)C3)sc12` [Example 139, (S)-1-cyano-N-(7-methyl-6-(1-methyl-1H-pyrazol-4-yl)benzo[d]thiazol-2-yl)pyrrolidine-3-carboxamide], over 6.00.
